Tests used:
Assay type in all cases: in vivo, Drosophila melanogaster
Conditions in all cases: 25° C.
[1] = test system: Hsp26 tTa, tRe Msl-1^Mpu on the 2nd chromosome; test: Recombinant chromosome experiments: parents raised on supplement, progeny on normal food, adults by sex (25, 18 or 29° C.)
Description: (§1) 40-45 young females and 20-25 young males raised at 25° C. upon food with the indicated tetracycline supplement were allowed to mate, then transferred to normal (tetracycline-free) food after 3-4 days. These flies were transferred to fresh vials of normal food every day for 12 days, then removed on the 13th day. All the vials were incubated at 25° C. while the progeny developed. The numbers of male and female progeny emerging as adults in each vial were recorded.
(§2) A standard range of additive concentrations were used in the following experiments (0.05-20 μg/ml). […] (=“not done”)
(§3) All the preceding experiments were performed at 25° C., the standard temperature for Drosophila culture. However, the insects in the wild would clearly be exposed to varying temperatures, so we investigated the extent to which the efficiency of the system is affected by temperature. As with the recombinant chromosome experiments, 40-45 young virgin females and 20-25 young males raised at 25° C. upon food with the indicated tetracycline supplement were allowed to mate, then transferred to normal (tetracycline-free) food after 3-4 days. These flies were transferred to fresh vials of normal food every day. The numbers of male and female progeny emerging as adults in each vial were recorded. These experiments were performed at either 18° C. or 29° C.

[2] = test system: Hsp26 tTa, tRe Msl-2^Nopu on the 2nd chromosome; test: as above
Description: as §1, §2, §3

[3] = test system: Sxl^pe-tTA, tRE-Msl-2^Nopu on the X chromosome; test: as above
Description: as §1, §2, §3

[4] = test system: Sxl^pe-tTA, tRE-Msl-2^Nopu on the third chromosome; test: as above
Description: as §1, §2, §3

[5] = test system: Sxl^pe-tTA, tRE-Ras64B^V12 on the X chromosome; test: as above
Description: as §1, §2, §3

[6] = test system: Sxl^pe-tTA, tRE-Ras64B^V12 on the third chromosome; test: as above
Description: as §1, §2, §3

[7] = test system: Sxlp^e tTa, tRe Msl-1^Mpu on the X chromosome; test: as above
Description: as §1, §2, §3

[8] = test system: Yp3 tTa, tRe Msl-2^Nopu on the 2nd chromosome; test: as above
Description: as §1, §2, §3

[9] = test system: Yp3 tTa, tRe Msl-1^Mpu on the 2nd chromosome; test: as above
Description: as §1
Since there is no meiotic recombination in Drosophila melanogaster males, any of these recombinant chromosomes could be used in a genetic sexing or insect control program, if required.
as §2, §3

[10] = test system: Yp3 tTa, tRe Ras64B^V12 on the 2nd chromosome; test: Recombinant chromosome experiments / maternal transmission of Tc (Table 1): parents raised on supplement, progeny on normal food, adults by sex
Description: as §1, §2, §3
We used a strain of Drosophila in which females, but not males, require Tc for viability.
A strain homozygous for second chromosome insertions of both Yp3-tTA and tRe-Ras64B^V12 was tested for the effect of parental dietary Tc. 40-45 young females and 20-25 young males raised at 25° C. upon food with the indicated tetracycline supplement were allowed to mate, then transferred to normal (tetracycline-free) food after 3-4 days. These flies were transferred to fresh vials of normal food every day for 12 days, and then removed on the 13th day. All the vials were incubated at 25° C. while the progeny developed. The total numbers of male and female progeny emerging as adults were recorded.

[11] = test system: Recombinant chromosome stocks; test: Maintenance of stocks on non-antibiotic tetracycline analogues
Description: Recombinant chromosome stocks can readily be maintained at 25° C. on epioxytetracycline concentrations of 1 μg/ml or anhydrotetracycline concentrations of 0.1 μg/ml, showing that these non-antibiotic tetracycline analogues are effective in repressing tTA responsive gene expression.
as §2

[12] = parents raised on anhydrotetracycline 0.05 μg/ml
[13] = parents raised on anhydrotetracycline 0.1 μg/ml
[14] = parents raised on anhydrotetracycline 1 μg/ml
[15] = parents raised on anhydrotetracycline 5 μg/ml
[16] = parents raised on anhydrotetracycline 20 μg/ml

Cc1c2c(c(O)c3c(O)cccc13)C(=O)[C@]1(O)C(=O)C(C(N)=O)=C(O)[C@@H](N(C)C)[C@@H]1C2 [anhydrotetracycline]
Female progeny emerging as adults [1, 12]: 0
Male progeny emerging as adults [1, 12]: 1492
Female progeny emerging as adults [1, 13]: 0
Male progeny emerging as adults [1, 13]: 1426
Female progeny emerging as adults [1, 14]: 0
Male progeny emerging as adults [1, 14]: 1418
Female progeny emerging as adults [1, 15]: 0
Male progeny emerging as adults [1, 15]: 1457
Female progeny emerging as adults [1, 16]: 8
Male progeny emerging as adults [1, 16]: 1499
Female progeny emerging as adults [2, 12]: 0
Male progeny emerging as adults [2, 12]: 707
Female progeny emerging as adults [2, 13]: 0
Male progeny emerging as adults [2, 13]: 1457
Female progeny emerging as adults [2, 14]: 0
Male progeny emerging as adults [2, 14]: 1437
Female progeny emerging as adults [2, 15]: 0
Male progeny emerging as adults [2, 15]: 773
Female progeny emerging as adults [2, 16]: 5
Male progeny emerging as adults [2, 16]: 1447
Female progeny emerging as adults [3, 12]: 0
Male progeny emerging as adults [3, 12]: 1114
Female progeny emerging as adults [3, 13]: 0
Male progeny emerging as adults [3, 13]: 1120
Female progeny emerging as adults [3, 14]: 0
Male progeny emerging as adults [3, 14]: 1130
Female progeny emerging as adults [3, 15]: 0
Male progeny emerging as adults [3, 15]: 1148
Female progeny emerging as adults [3, 16]: 0
Male progeny emerging as adults [3, 16]: 1128
Female progeny emerging as adults [4, 12]: 0
Male progeny emerging as adults [4, 12]: 1331
Female progeny emerging as adults [4, 13]: 0
Male progeny emerging as adults [4, 13]: 1431
Female progeny emerging as adults [4, 14]: 0
Male progeny emerging as adults [4, 14]: 1309
Female progeny emerging as adults [4, 15]: 0
Male progeny emerging as adults [4, 15]: 1359
Female progeny emerging as adults [4, 16]: 1
Male progeny emerging as adults [4, 16]: 1362
Female progeny emerging as adults [5, 12]: 0
Male progeny emerging as adults [5, 12]: 1452
Female progeny emerging as adults [5, 13]: 0
Male progeny emerging as adults [5, 13]: 1528
Female progeny emerging as adults [5, 14]: 0
Male progeny emerging as adults [5, 14]: 1614
Female progeny emerging as adults [5, 15]: 0
Male progeny emerging as adults [5, 15]: 1448
Female progeny emerging as adults [5, 16]: 5
Male progeny emerging as adults [5, 16]: 1592
Female progeny emerging as adults [6, 12]: 0
Male progeny emerging as adults [6, 12]: 1381
Female progeny emerging as adults [6, 13]: 0
Male progeny emerging as adults [6, 13]: 1304
Female progeny emerging as adults [6, 14]: 0
Male progeny emerging as adults [6, 14]: 1121
Female progeny emerging as adults [6, 15]: 0
Male progeny emerging as adults [6, 15]: 1269
Female progeny emerging as adults [6, 16]: 1
Male progeny emerging as adults [6, 16]: 1247
Female progeny emerging as adults [7, 12]: 0
Male progeny emerging as adults [7, 12]: 1582
Female progeny emerging as adults [7, 13]: 0
Male progeny emerging as adults [7, 13]: 1499
Female progeny emerging as adults [7, 14]: 0
Male progeny emerging as adults [7, 14]: 1474
Female progeny emerging as adults [7, 15]: 0
Male progeny emerging as adults [7, 15]: 1619
Female progeny emerging as adults [7, 16]: 5
Male progeny emerging as adults [7, 16]: 1533
Female progeny emerging as adults [8, 12]: 0
Male progeny emerging as adults [8, 12]: 1316
Female progeny emerging as adults [8, 13]: 0
Male progeny emerging as adults [8, 13]: 1358
Female progeny emerging as adults [8, 14]: 0
Male progeny emerging as adults [8, 14]: 1354
Female progeny emerging as adults [8, 15]: 0
Male progeny emerging as adults [8, 15]: 1344
Female progeny emerging as adults [8, 16]: 1
Male progeny emerging as adults [8, 16]: 1312
Female progeny emerging as adults [9, 12]: 0
Male progeny emerging as adults [9, 12]: 1339
Female progeny emerging as adults [9, 13]: 0
Male progeny emerging as adults [9, 13]: 1263
Female progeny emerging as adults [9, 14]: 0
Male progeny emerging as adults [9, 14]: 1265
Female progeny emerging as adults [9, 15]: 0
Male progeny emerging as adults [9, 15]: 1284
Female progeny emerging as adults [9, 16]: 0
Male progeny emerging as adults [9, 16]: 1297
Female progeny emerging as adults [10, 12]: 0
Male progeny emerging as adults [10, 12]: 1449
Female progeny emerging as adults [10, 13]: 0
Male progeny emerging as adults [10, 13]: 1411
Female progeny emerging as adults [10, 14]: 0
Male progeny emerging as adults [10, 14]: 1397
Female progeny emerging as adults [10, 15]: 0
Male progeny emerging as adults [10, 15]: 1430
Female progeny emerging as adults [10, 16]: 2
Male progeny emerging as adults [10, 16]: 1428
concentration on which recombinant chromosome stocks can readily be maintained [11]: 0.1 µg/mL
repressing tTA responsive gene expression [11]: effective
